Measured values: patent US9290551B2, “Compounds for treating papilloma virus infection” (NanoVir, LLC, priority 2012, dated 2016)
Like-named read-outs stand apart in the source and are kept apart here.

Key:
[1] = Membrane integrity / modified propidium iodide procedure; assay type: cell-based; conditions: rat, membrane integrity assay, read-out: TC50
Procedure: (§1) Toxicity testing has been carried out for 3 separate polyamides. Two different Rat hepatoma assays were used because they are industry standards for predicting in vivo toxicity. The assays for ATP and membrane integrity assays are described in detail below. Thus, rat hepatoma cells (H4IIE) were seeded into 96-well plates and cultured in medium containing 20% bovine serum. Following an equilibration period of 48 hr, the cells were treated with the test compounds at various concentrations for 24 hr at 37° C. in 5% CO2. Polyamide compounds were tested for toxicity in the two separate assays. A TC50 (concentration needed to kill half of the cells) was not achieved for any polyamides tested over the wide concentration range explored.
A modified propidium iodide (PI) procedure was used to assess cell proliferation/viability. This specific nucleic acid binding dye fluoresces when intercalated within the nucleic acids. The […] enhances PI fluorescence approximately 20 times while the excitation maxima are shifted 30-40 ηm. During method development experiments, it was determined that Triton-X-100 was the best solution to permeabilize the H4IIE cells thereby allowing the PI access to intracellular RNA and DNA. Fluorescence was measured using a Packard Fusion plate reader at 540 ηm excitation and 610 nm emission.

[2] = MTT cell viability assay; conditions: human, keratinocytes that maintain HPV 16 episomes
Procedure: (§2) Cells were cultured for 5 days in the presence of polyamide; % Cell Viability=(OD590 drug/OD590 control)×100; n=3.
(§3) Solubilisation of the cells by the addition of a detergent results in the liberation of the crystals which are solubilized. The number of surviving cells is directly proportional to the level of the formazan product created. The color can then be quantified using a simple colorimetric assay. The results can be read on a multiwell scanning spectrophotometer (ELISA reader).
(§4) Cell viability was also assessed routinely with the MTT assay.

[3] = tested on: Keratinocytes that maintain HPV 16 episomes; experiment: MTT cell viability assay; conditions: MTT assay; FIG. 2B, FIG. 5
Procedure: as §2, §3, §4

[4] = tested on: HPV 16; experiment: HPV 16 episome DNA levels in W12E cells by Q-PCR (Taqman); assay type: cell-based, Human papilloma virus; conditions: for effect on HPV viral DNA: comparison of 1037, distamycin A and cidofovir, FIG. 5; for effect on absolute HPV 16 DNA levels: higher doses, in some experiments, FIG. 3
[5] = tested on: HPV episomal DNA; experiment: Southern blot of HPV episomal DNA; assay type: cell-based, Human papilloma virus; conditions: 1 μM and 10 μM; FIG. 4
Procedure: Several alternative approaches have been used to confirm the effects of our compounds on viral DNA. […] DMSO is the vehicle control; HPV DNA indicates the linearized HPV DNA used to generate the hybridization probe via random primed labeling with DIG-dUTP (Roche); following hybridization, blot was incubated with anti-DIG-AP conjugate and HPV DNA detected using ECF substrate (Amersham) and Storm phosphorimager. […] Other NV compounds have similarly shown the expected decrease in viral DNA by Southern blotting.

[6] = tested on: HPV31; experiment: HPV31 DNA levels in keratinocytes by real-time PCR; assay type: cell-based, Human papilloma virus; conditions: effective (pseudo) IC50
Procedure: (§5) Human keratinocytes, including those maintaining HPV episomes, are cultured on mitomycin C-treated J2 3T3 cells in media containing three parts Dulbecco's modified Eagle medium (DMEM) and one part F12 media, our modification of published methods (Rheinwald and Green, 1975). Media (E Media) is supplemented with 0.4 μg/mL hydrocortisone, 10 ng/mL cholera toxin, 5 μg/mL insulin, 24 μg/mL adenine, 5 μg/mL transferrin, […] (T3), 10 ng/mL epidermal growth factor (EGF), 1% penicillin-streptomycin, and 5% fetal bovine serum (FBS). All cells are passaged at 70% confluency at a split ratio of 1:5.
(§6) Polyamides for HPV 18 are dissolved at 10 mM in 100% DMSO and diluted with H2O to 1 mM. Polyamides are added to cells in E media at final concentrations of 0.1-10 μM, with final DMSO concentrations of 0.1%. As controls, cells are incubated with normal E media and E media containing the “vehicle” 0.1% DMSO. The HPV DNA levels are then quantified according to previously published procedures (Garner-Hamrick and Fisher, Virology, 301, 334-41, 2002). After incubation, cells are harvested from the plates by either trypsinization or direct lysis with proteinase K digestion buffer (PK buffer: 100 mM NaCl, 10 mM Tris pH 8, 25 mM EDTA, 0.5% SDS, 0.1 mg/mL proteinase K). Trypsinized cells are counted on a hemocytometer and pelleted by centrifugation. Episomal HPV is isolated by the Hirt method (Hirt, 1967) and cell pellets are lysed in 0.6% SDS with 10 mM EDTA. NaCl is next added to a final concentration of 1 M. Following an overnight incubation at 4° C., precipitates containing the chromosomal DNA are spun down and episomal DNA precipitated by the addition of isopropanol. Cells lysed directly in PK buffer are transferred to microfuge tubes and incubated at 50° C. for 2 h. Lysates are then extracted with phenol/chloroform/isoamyl alcohol and spun through a phase lock gel (Eppendorf, Hamburg, Germany). Total DNA is then precipitated with 0.3 M NaOAc and 2.5 vol. ethanol and resuspended in Tris-EDTA (TE) buffer.
HPV31 primers-probe sets for PCR were also designed within the L1 gene:
(§7) All primers and probes are synthesized and HPLC purified by Applied Biosystems (Foster City, Calif.). The HPV probes are labeled with the 5′ reporter dye FAM (6-carboxy-fluorescein) and the 3′ quencher dye TAMRA (6-carboxytetramethyl-rhodamine). A standard curve is generated using a range of 10^8 to 10 copies/reaction of cloned, genomic HPV31 or HPV18 DNA using the following formula: (1.82×10^15)(μg/μL stock DNA)/(length in base pairs)(2)=copies/μL stock DNA. PCR reactions contain final concentrations of 1× Universal Master Mix (PE Applied Biosystems), 200 nM of each primer, and 250 nM probe (PE Applied Biosystems) in a reaction volume of 25 μL. Each Hirt-isolated DNA sample is analyzed in triplicate reactions for episomal HPV. Copies/reaction are determined from the standard curve, and copies/cell determined according to the following formula: (copies/reaction)×(DNA dilution)/(total # cells)=copies/cell.

[7] = tested on: HPV18; experiment: HPV18 DNA levels in keratinocytes by real-time PCR; assay type: cell-based, Human papilloma virus; conditions: effective (pseudo) IC50
Procedure: as §5, §6
Viral DNA levels are next quantified according to variations on our previously published methods (Garner-Hamrick and Fisher, Virology, 301, 334-41, 2002). Quantitative PCR is performed using Real-Time PCR technology on an ABI PRISM 7700 Sequence Detector. All primers and probes were designed using Primer Express 1.0 (ABI). For HPV 18, PCR primer-probe sets were designed within the L1 gene:
as §7

[8] = tested on: HPV 16; experiment: HPV 16 episome DNA levels in W12E cells by Q-PCR (Taqman); assay type: cell-based, Human papilloma virus; conditions: 10 μM, drug washed out on day 17, sub-cultured without drug for 2 weeks; FIG. 7
[9] = tested on: rat hepatoma cells (H4IIE); assay type: cell-based
Procedure: as §1

[10] = effective (pseudo) IC50, 50% reduction in HPV DNA relative to vehicle (0.1% DMSO), read-out: HPV-16 IC50

| IC50 [4, 10] [nM] | IC50 [6] [nM] | Structure (SMILES) | effect on cell viability [3] | effect on HPV viral DNA [4] | IC50 [7] [nM] | effect on absolute HPV 16 DNA levels [4] | other results |
| --- | --- | --- | --- | --- | --- | --- | --- |
| – | – | C=C(C)[C@H]1Cc2c(ccc3c2O[C@@H]2COc4cc(OC)c(OC)cc4[C@@H]2C3=O)O1 [rotenone] | – | – | – | – | CC50 at 24 h [1]: 490 nM |
| – | – | Nc1ccn(C[C@@H](CO)OCP(=O)(O)O)c(=O)n1 [Cidofovir, reference compound] | also affect cell viability | only effective against HPV DNA at high concentrations | – | – | CC50 [2]: 750000 nM; loss of total HPV DNA content ([4]; 72 hours, only at very high concentrations, FIG. 1): approximately 40%; selectivity index (SI: ratio of IC50 to TD50) ([4]; cell culture): 2.5 |
| > 1000 | 100 to 1000 | CN(CCCN)CCCNC(=O)CCNC(=O)c1cc(NC(=O)c2cc(NC(=O)c3cc(NC(=O)CCNC(=O)c4cc(NC(=O)c5cc(NC(=O)c6cc(NC(=O)[C@H](N)CCNC(=O)c7cc(NC(=O)c8cc(NC(=O)c9cc(NC(=O)CCNC(=O)c%10cc(NC(=O)c%11cc(NC(=O)c%12nccn%12C)cn%11C)cn%10C)cn9C)cn8C)cn7C)cn6C)cn5C)cn4C)cn3C)cn2C)cn1C [Polyamide 1020, ImPPβPPPγNH2PPPβPPPβTa] | – | – | – | – | episomal DNA content by Southern blot [5]: expected decrease in episomal DNA content |
| – | – | CC[C@@]1(O)C(=O)OCc2c1cc1n(c2=O)Cc2cc3ccccc3nc2-1 [camptothecin] | – | – | – | – | CC50 at 24 h ([1]; H4IIE rat hepatoma cells): 5000 nM |
| 100 to 1000 | 100 to 1000 | CN(CCCN)CCCNC(=O)CCNC(=O)c1cc(NC(=O)c2cc(NC(=O)c3cc(NC(=O)c4cc(NC(=O)CCNC(=O)c5cc(NC(=O)c6cc(NC(=O)CCCNC(=O)c7cc(NC(=O)c8cc(NC(=O)c9cc(NC(=O)CCNC(=O)c%10cc(NC(=O)c%11cc(NC(=O)c%12nccn%12C)cn%11C)cn%10C)cn9C)cn8C)cn7C)cn6C)cn5C)cn4C)cn3C)cn2C)cn1C [Polyamide 1028, ImPPβPPPγPPβPPPPβTa] | – | – | 100 to 1000 | nearly complete elimination of detectable viral DNA | HPV 16 episomal DNA rebound after withdrawal [8]: recovery does not approach control levels for at least two weeks; HPV episomes by QPCR ([4]; concentrations as low as 5 μM): undetectable levels; IC50 ([4]; read-out: IC50 against HPV 16): 100 nM; CC50 [9]: > 300000 nM |

| Structure (SMILES) | IC50 [4, 10] [nM] | IC50 [6] [nM] | effect on cell viability [3] | effect on HPV viral DNA [4] | IC50 [7] [nM] | effect on absolute HPV 16 DNA levels [4] | other results |
| --- | --- | --- | --- | --- | --- | --- | --- |
| CN(CCCN)CCCNC(=O)CCNC(=O)c1cc(NC(=O)c2cc(NC(=O)c3cc(NC(=O)CCNC(=O)c4cc(NC(=O)c5cc(NC(=O)c6cc(NC(=O)CCNC(=O)c7cc(NC(=O)c8cc(NC(=O)[C@H](N)CCNC(=O)c9cc(NC(=O)c%10cc(NC(=O)CCNC(=O)c%11cc(NC(=O)c%12nc(NC(=O)c%13cc(NC(=O)CCNC(=O)c%14cc(NC(=O)c%15cc(NC(=O)c%16nccn%16C)cn%15C)cn%14C)cn%13C)cn%12C)cn%11C)cn%10C)cn9C)cn8C)cn7C)cn6C)cn5C)cn4C)cn3C)cn2C)cn1C [Polyamide 1037, ImPPβPIPβPPγNH2PPβPPPβPPPβTa] | 100 to 1000 | ≤ 100 | little impact on cell viability | dramatic reduction of viral DNA levels | ≤ 100 | nearly complete elimination of detectable viral DNA | – |
